Measurements: patent publication EP1101496A1, “THERAPEUTIC AGENTS FOR ALLERGIC DISEASES” (FUJI YAKUHIN KOGYO KABUSHIKI KAISHA, priority 1998, dated 2000)

Key:
[1] = Mouse body weight gain (side-effect index); type: in vivo, mice; settings: average ± standard deviation; once a day Days 0-5; Compound No. 8 or 10 60 mg/kg s.c., prednisolone 10 mg/kg i.p.
Procedure: Next the mice were measured for their body weight.

[2] = test system: infiltration of leukocytes into an air pouch; assay: Allergic inflammation model (air pouch model); type: in vivo, rats; settings: 10 mg/kg or 30 mg/kg into the air pouch or intraperitoneally; 8 hours after the second challenge; dexamethasone 0.1 mg/kg as comparison
Procedure: Compound No. 8 was dissolved in physiological saline to make the final concentration 2.5 mg/mL (equal to 10 mg/kg) or 7.5 mg/mL (equal to 30 mg/kg) and administered into an air pouch of animals or intraperitoneally at a dose of 4 mL/kg. Dexamethasone was also dissolved in physiological saline to make the final concentration 25 µg/mL (equal to 0.1 mg/kg) and administered into an air pouch of animals at a dose of 4 mL/kg. Administration into such an air pouch was conducted simultaneously with the second challenge while the intraperitoneal administration was 30 minutes prior to the second challenge. Acetylated bovine serum albumin diazo-coupled with arsanilic acid (ABA-AcBSA) was prepared according to the Ouchi et al. and Tabachnick et al. methods as disclosed in Ouchi et al., "Seibutsu Yakukagaku Jikken Koza, Ensho To Allergy (Inflammation and Allergy) I-2", pp.194 to 206, Hirokawa Publishing Co., Japan and Tabachnick et al., The Journal of Biological Chemistry, 234: 1726- 1730, 1959, and mixed with a Freund's complete adjuvant (Difco) at an equal ratio. The mixture was treated using a connection-type glass syringe to form an emulsion which was used as a sensitizing solution. […] The retrieved exudates were measured by a dye-exclusion method using a haematocytometer and the number of exudated leukocytes were counted.

[3] = test system: mouse scratching behavior; assay: Scratching behavior in experimental atopic dermatitis model; type: in vivo, mice; settings: for % Inhibition (scratching behavior) / Scratching Behavior (Times) (Average± Deviation): 0.1% in ethanol painted on auricles 1 hour pre-elicitation; for % Inhibition (scratching behavior): 15 to 30 min and 30 to 45 min post-elicitation durations, versus solvent control; for Scratching Behavior (Times) (Average± Deviation): counts for the 15 to 30 min and 30 to 45 min post-elicitation durations
Procedure: Mice were passively sensitized with anti-DNP IgE Ab and then elicited by painting 0.1% DNFB in ethanol onto both sides of a pair of mouse auricles […] in the same manner as in Example 1. Five minutes pre-elicitation, an ethanolic solution containing 0.3% of Compound No. 20 was painted onto both sides of a pair of the auricles at a dose of 10 µL per each side. Tacrolimus (Fujisawa Pharmaceutical Co., Ltd.) was used as a positive control drug. An ethanolic solution containing 0.1% of the positive control drug was prepared just prior to use and then painted onto the mouse auricles 1 hour pre-elicitation in the same manner as for the painting of Compound No. 20. A negative control group was painted with a solvent alone (6 animals per group).
From the point immediately after elicitation, each mouse was housed individually in a comparted acrylic cage and observed by taking a video without any attendant up to 2 hours after elicitation (Inagaki, N., et al., The European Journal of Pharmacology, 367: 361-371, 1999). After finishing such a video recording, scratching behavior by mouse hind paws to a pair of ears was visually examined for each mouse and integrated scratching behaviors were counted during 6 post-elicitation durations for 20 minutes each; 0 to 20 min., 20 to 40 min., 40 to 60 min., 60 to 80 min., 80 to 100 min., and 100 to 120 min. In this experiment, an action from a start to scratch the ear by the mouse hind paw to a release of the hind paw is counted as one scratching behavior.
Mice were passively sensitized with anti-DNP IgE Ab and then elicited with 0.1% DNFB in ethanol 24 hours post-sensitization in the same manner as in Example 12. One hour pre-elicitation, a 0.1% solution of a metalloproteinase inhibitor (Compound No. 20 or 21) in ethanol was painted onto both sides of a pair of the auricles at a dose of 10 µL per each side. A negative control group was painted with a solvent alone. From the point immediately after the elicitation, each mouse was housed individually in a comparted cage and observed by taking a video without any attendant up to 2 hours thereafter (3 animals per group). In the same manner as in Example 12, scratching behaviors by mouse hind paws were counted for every 15 minutes: 8 post-elicitation durations; 0 to 15 min., 15 to 30 min., 30 to 45 min., 45 to 60 min., 60 to 75 min., 75 to 90 min., 90 to 105 min., and 105 to 120 min.

Row | SMILES | Body Weight Gain, Day 5 [1] | Body Weight Gain, Day 7 [1] | Body Weight Gain, Day 10 [1] | infiltration of leukocytes into an air pouch (FIG. 13) [2] | % Inhibition (scratching behavior) [3] | Scratching Behavior (Times) (Average± Deviation) [3] | inhibitory efficacy on scratching in the 20 to 40 min post-elicitation duration (FIG. 8) ([3]; 0.3% Compound No. 20 versus 0.1% tacrolimus, painted on auricles) | efficacy on mouse scratching behavior (FIG. 8) ([3]; 0.3% ethanolic solution painted on auricles 10 µL per side 5 minutes pre-elicitation, observed up to 2 hours)
1 | CNC(=O)[C@H](Cc1ccc(NC(=N)N)cc1)NC(=O)[C@H](CC(C)C)C(CCCc1ccccc1)C(=O)NO (single isomer, unassigned) [Compound No. 8, N-[4-(N-hydroxyamino)-2(R)-isobutyl-3(R or S)-(3-phenyltrimethylene)succinyl]-L-4'-guanidophenylalanine-N-methylamide 1 acetate] | 0.57± 0.61 | 0.77± 0.55 | 1.20± 0.26 | significantly inhibited | – | – | – | –
2 | CNC(=O)[C@H](Cc1ccc(NC(=N)N)cc1)NC(=O)[C@H](CC(C)C)C(CCCc1ccccc1)C(=O)NO.Cl (single isomer, unassigned) [Compound No. 20, N-[4-(N-hydroxyamino)-2(R)-isobutyl-3(R or S)-(3-phenyltrimethylene)succinyl]-L-4'-guanidophenylalanine-N-methylamide 1 hydrochloride] | – | – | – | – | 40.7% | 124.0 ± 43.6 Times | higher than that of tacrolimus | apparently inhibits mouse scratching behavior
3 | CNC(=O)[C@H](Cc1ccc(N=C(N)N)cc1)NC(=O)[C@@H](CC(=O)NO)CC(C)C.O=S(=O)(O)O [Compound No. 21, N-[4-(N-hydroxyamino)-2(R)-isobutylsuccinyl]-L-4'-guanidophenylalanine-N-methylamide 1 sulfate] | – | – | – | – | 54.1% | 96.0 ± 32.6 Times | – | –
